We go through five molecules from ChEMBL document CHEMBL1148931, “New sesterterpenes from the sponge Smenospongia sp” (2004).

Molecules are shown by their SMILES. Values after ≈ are worked out from the molar mass of the structure shown.

In this assay the test system is K562. Description: Cytotoxicity against human K562 cells. The format is functional. The note with it: read-out: LC50 (the source's name).
Take `CC(=O)O[C@@H]1OC=C2[C@@H](OC(C)=O)C[C@@H]3[C@](C)(CC[C@H]4[C@@]3(C)CC[C@H]3C(C)(C)CCC[C@@]34CO)[C@H]21`: the CC50 is 0.02 µg/mL (≈ 0.0409 µM).
To `CC(=O)O[C@@H](C/C=C(\C)CC/C=C(\C)CC/C=C(\C)CC(=O)CC(C)C)c1ccoc1` belongs 31.6 µg/mL (≈ 73.7 µM); to `CC(=O)OC[C@]12CCCC(C)(C)[C@@H]1CC[C@@]1(C)[C@@H]3CC=C4C(=O)O[C@@H](OC(C)=O)[C@@H]4[C@@]3(C)CC[C@@H]12`, 11.2 µg/mL (≈ 23 µM); to `CC(=O)OC[C@]12CCCC(C)(C)[C@@H]1CC[C@@]1(C)[C@@H]3CC=C4C(=O)O[C@@H](O)[C@@H]4[C@@]3(C)CC[C@@H]12`, 4.9 µg/mL (≈ 11 µM).
As for `C/C(=C\CC/C(C)=C/C[C@H](O)c1ccoc1)CC/C=C(\C)CC(=O)CC(C)C`, the figure is 3 µg/mL (≈ 7.76 µM).
